Experiments:
Protease = Protease (Human immunodeficiency virus 1, UniProt Q9YQ12); experiment: Inhibition of HIV1 protease
[1] = test system: Human immunodeficiency virus 1; experiment: Antiviral activity against HIV1 LAI infected in human MT2 cells by MTT assay; assay type: functional, organism-based; conditions: Human immunodeficiency virus 1, M:B_Lai
[2] = test system: Human immunodeficiency virus 1; experiment: Antiviral activity against wild type HIV1 isolate ERS104pre infected in PHA-stimulated human PBMC assessed as inhibition of p24 […] protein production; assay type: functional, organism-based; conditions: Human immunodeficiency virus 1, isolate ERS104pre
[3] = test system: Human immunodeficiency virus 1; experiment: Antiviral activity against multidrug-resistant HIV1 isolate B infected in PHA-stimulated human PBMC assessed as inhibition of p24 […] protein production; assay type: functional, organism-based; conditions: Human immunodeficiency virus 1, isolate B
[4] = test system: Human immunodeficiency virus 1; experiment: Antiviral activity against multidrug-resistant HIV1 isolate C infected in PHA-stimulated human PBMC assessed as inhibition of p24 […] protein production; assay type: functional, organism-based; conditions: Human immunodeficiency virus 1, isolate C
[5] = test system: Human immunodeficiency virus 1; experiment: Antiviral activity against multidrug-resistant HIV1 isolate G infected in PHA-stimulated human PBMC assessed as inhibition of p24 […] protein production; assay type: functional, organism-based; conditions: Human immunodeficiency virus 1, isolate G
[6] = test system: Human immunodeficiency virus 1; experiment: Antiviral activity against multidrug-resistant HIV1 isolate TM infected in PHA-stimulated human PBMC assessed as inhibition of p24 […] protein production; assay type: functional, organism-based; conditions: Human immunodeficiency virus 1, isolate TM
[7] = test system: Human immunodeficiency virus 1; experiment: Antiviral activity against multidrug-resistant HIV1 isolate MM infected in PHA-stimulated human PBMC assessed as inhibition of p24 […] protein production; assay type: functional, organism-based; conditions: Human immunodeficiency virus 1, isolate MM
[8] = test system: Human immunodeficiency virus 1; experiment: Antiviral activity against multidrug-resistant HIV1 isolate JSL infected in PHA-stimulated human PBMC assessed as inhibition of p24 […] protein production; assay type: functional, organism-based; conditions: Human immunodeficiency virus 1, isolate JSL
[9] = test system: Human immunodeficiency virus 1; experiment: Selectivity ratio of IC50 for multidrug-resistant HIV1 isolate B to IC50 for wild type HIV1 isolate ERS104pre; assay type: functional
[10] = test system: Human immunodeficiency virus 1; experiment: Selectivity ratio of IC50 for multidrug-resistant HIV1 isolate C to IC50 for wild type HIV1 isolate ERS104pre; assay type: functional
[11] = test system: Human immunodeficiency virus 1; experiment: Selectivity ratio of IC50 for multidrug-resistant HIV1 isolate G to IC50 for wild type HIV1 isolate ERS104pre; assay type: functional
[12] = test system: Human immunodeficiency virus 1; experiment: Selectivity ratio of IC50 for multidrug-resistant HIV1 isolate TM to IC50 for wild type HIV1 isolate ERS104pre; assay type: functional
[13] = test system: Human immunodeficiency virus 1; experiment: Selectivity ratio of IC50 for multidrug-resistant HIV1 isolate MM to IC50 for wild type HIV1 isolate ERS104pre; assay type: functional
[14] = test system: Human immunodeficiency virus 1; experiment: Selectivity ratio of IC50 for multidrug-resistant HIV1 isolate JSL to IC50 for wild type HIV1 isolate ERS104pre; assay type: functional
[15] = test system: Human immunodeficiency virus 1; experiment: Antiviral activity against indinavir-resistant HIV1 NL4-3; assay type: functional, organism-based; conditions: Human immunodeficiency virus 1, NL4-3
[16] = test system: Human immunodeficiency virus 1; experiment: Antiviral activity against saquinavir-resistant HIV1 NL4-3; assay type: functional, organism-based; conditions: Human immunodeficiency virus 1, NL4-3
[17] = test system: Human immunodeficiency virus 1; experiment: Antiviral activity against lopinavir-resistant HIV1 NL4-3; assay type: functional, organism-based; conditions: Human immunodeficiency virus 1, NL4-3

Protease, sequence (Q9YQ12 whole entry): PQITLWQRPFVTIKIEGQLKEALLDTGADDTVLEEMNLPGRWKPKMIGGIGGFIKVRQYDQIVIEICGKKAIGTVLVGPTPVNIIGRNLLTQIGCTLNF

| Structure (SMILES) | Ki (Protease) [nM] | IC50 [1] [nM] | other results |
| --- | --- | --- | --- |
| C=CCCCCOc1cc(OC)ccc1S(=O)(=O)N(CCCCC=C)C[C@@H](O)[C@H](Cc1ccccc1)NC(=O)O[C@H]1CO[C@H]2OCC[C@H]21 | 16.5 | > 1000 |  |
| COc1ccc2c(c1)OCCC/C=C\CC[C@@H](C)CN(C[C@@H](O)[C@H](Cc1ccccc1)NC(=O)O[C@H]1CO[C@H]3OCC[C@H]31)S2(=O)=O | 6 | 200 |  |
| COc1ccc2c(c1)OCCCCCCC[C@H](C)CN(C[C@@H](O)[C@H](Cc1ccccc1)NC(=O)O[C@H]1CO[C@H]3OCC[C@H]31)S2(=O)=O | 0.07 | 170 |  |
| COc1ccc2c(c1)OC/C=C\CCCCN(C[C@@H](O)[C@H](Cc1ccccc1)NC(=O)O[C@H]1CO[C@H]3OCC[C@H]31)S2(=O)=O | 0.058 | 14 |  |
| COc1ccc2c(c1)OCCCCCCCN(C[C@@H](O)[C@H](Cc1ccccc1)NC(=O)O[C@H]1CO[C@H]3OCC[C@H]31)S2(=O)=O | 0.017 | 14 |  |
| COc1ccc2c(c1)OCCCCCCCCCCN(C[C@@H](O)[C@H](Cc1ccccc1)NC(=O)O[C@H]1CO[C@H]3OCC[C@H]31)S2(=O)=O | 0.82 | 318 |  |
| C=CCCOc1cc(OC)ccc1S(=O)(=O)N(CC=C)C[C@@H](O)[C@H](Cc1ccccc1)NC(=O)O[C@H]1CO[C@H]2OCC[C@H]21 | 0.63 |  |  |
| COc1ccc2c(c1)OC/C=C\CN(C[C@@H](O)[C@H](Cc1ccccc1)NC(=O)O[C@H]1CO[C@H]3OCC[C@H]31)S2(=O)=O | 2.4 |  |  |
| COc1ccc2c(c1)OCCCCCN(C[C@@H](O)[C@H](Cc1ccccc1)NC(=O)O[C@H]1CO[C@H]3OCC[C@H]31)S2(=O)=O | 0.09 | 5.5 |  |
| COc1ccc2c(c1)OCCCCCCN(C[C@@H](O)[C@H](Cc1ccccc1)NC(=O)O[C@H]1CO[C@H]3OCC[C@H]31)S2(=O)=O | 0.15 | 95 |  |
| C=CCCCCOc1cc(OC)ccc1S(=O)(=O)N(CC(C)CC=C)C[C@@H](O)[C@H](Cc1ccccc1)NC(=O)O[C@H]1CO[C@H]2OCC[C@H]21 (some centres undefined) | 15 | 380 |  |
| C=CCCCCN(C[C@@H](O)[C@H](Cc1ccccc1)NC(=O)O[C@H]1CO[C@H]2OCC[C@H]21)S(=O)(=O)c1ccc(OC)cc1OCCC=C | 6.9 |  |  |
| Cc1cccc(C)c1OCC(=O)N[C@@H](Cc1ccccc1)[C@@H](O)C[C@H](Cc1ccccc1)NC(=O)[C@H](C(C)C)N1CCCNC1=O [LOPINAVIR] |  |  | IC50 [2]: 34 nM; IC50 [3]: > 1000 nM; IC50 [4]: > 1000 nM; IC50 [5]: 260 nM; IC50 [6]: > 1000 nM; IC50 [7]: > 1000 nM; IC50 [8]: > 1000 nM; Ratio IC50 [9]: >29; Ratio IC50 [10]: >29; Ratio IC50 [11]: 8; Ratio IC50 [12]: >29; Ratio IC50 [13]: >29; Ratio IC50 [14]: >29 |
| CC(C)(C)NC(=O)[C@@H]1C[C@@H]2CCCC[C@@H]2CN1C[C@@H](O)[C@H](Cc1ccccc1)NC(=O)[C@H](CC(N)=O)NC(=O)c1ccc2ccccc2n1 |  |  | IC50 [2]: 8 nM; IC50 [3]: 270 nM; IC50 [4]: 32 nM; IC50 [5]: 30 nM; IC50 [6]: 260 nM; IC50 [7]: 190 nM; IC50 [8]: 300 nM |
| COc1ccc2c(c1)OCCCCCCC[C@@H](C)CN(C[C@@H](O)[C@H](Cc1ccccc1)NC(=O)O[C@H]1CO[C@H]3OCC[C@H]31)S2(=O)=O | 3.7 | 650 |  |
| COc1ccc2c(c1)OCCC/C=C\CN(C[C@@H](O)[C@H](Cc1ccccc1)NC(=O)O[C@H]1CO[C@H]3OCC[C@H]31)S2(=O)=O | 0.077 | 20 |  |
| C=CCCCCN(C[C@@H](O)[C@H](Cc1ccccc1)NC(=O)O[C@H]1CO[C@H]2OCC[C@H]21)S(=O)(=O)c1ccc(OC)cc1OCC=C | 10 |  |  |
| COc1ccc2c(c1)OCCCCCCCC(C)(C)CN(C[C@@H](O)[C@H](Cc1ccccc1)NC(=O)O[C@H]1CO[C@H]3OCC[C@H]31)S2(=O)=O | 6.8 | > 1000 |  |

| Structure (SMILES) | Ki (Protease) [nM] | IC50 [1] [nM] | other results |
| --- | --- | --- | --- |
| COc1ccc2c(c1)OCCC/C=C/CC[C@H](C)CN(C[C@@H](O)[C@H](Cc1ccccc1)NC(=O)O[C@H]1CO[C@H]3OCC[C@H]31)S2(=O)=O | 0.15 | 52 |  |
| CC(C)CN(C[C@@H](O)[C@H](Cc1ccccc1)NC(=O)O[C@H]1CCOC1)S(=O)(=O)c1ccc(N)cc1 |  |  | IC50 [2]: 30 nM; IC50 [3]: > 1000 nM; IC50 [4]: 370 nM; IC50 [5]: 430 nM; IC50 [6]: 320 nM; IC50 [7]: 210 nM; IC50 [8]: 620 nM |
| C=CCOc1cc(OC)ccc1S(=O)(=O)N(CC=C)C[C@@H](O)[C@H](Cc1ccccc1)NC(=O)O[C@H]1CO[C@H]2OCC[C@H]21 | 0.1 |  |  |
| COc1ccc2c(c1)OCCCCCCCCN(C[C@@H](O)[C@H](Cc1ccccc1)NC(=O)O[C@H]1CO[C@H]3OCC[C@H]31)S2(=O)=O | 0.47 | 22 |  |
| COc1ccc2c(c1)OCC/C=C\CN(C[C@@H](O)[C@H](Cc1ccccc1)NC(=O)O[C@H]1CO[C@H]3OCC[C@H]31)S2(=O)=O | 0.051 | 15 |  |
| CC(C)(C)NC(=O)[C@@H]1CN(Cc2cccnc2)CCN1C[C@@H](O)C[C@@H](Cc1ccccc1)C(=O)N[C@H]1c2ccccc2C[C@H]1O.O |  |  | IC50 [2]: 43 nM; IC50 [3]: > 1000 nM; IC50 [4]: > 1000 nM; IC50 [5]: 340 nM; IC50 [6]: > 1000 nM; IC50 [7]: > 1000 nM; IC50 [8]: > 1000 nM; Ratio IC50 [9]: >23; Ratio IC50 [10]: >23; Ratio IC50 [11]: 5; Ratio IC50 [12]: >23; Ratio IC50 [13]: >23; Ratio IC50 [14]: >23 |
| COc1ccc2c(c1)OCCC/C=C/CCC(C)(C)CN(C[C@@H](O)[C@H](Cc1ccccc1)NC(=O)O[C@H]1CO[C@H]3OCC[C@H]31)S2(=O)=O | 6.9 | > 1000 |  |
| COc1ccc2c(c1)OCCCC/C=C\CN(C[C@@H](O)[C@H](Cc1ccccc1)NC(=O)O[C@H]1CO[C@H]3OCC[C@H]31)S2(=O)=O | 0.08 | 23 |  |
| C=CCCCCOc1cc(OC)ccc1S(=O)(=O)N(C[C@@H](C)CC=C)C[C@@H](O)[C@H](Cc1ccccc1)NC(=O)O[C@H]1CO[C@H]2OCC[C@H]21 | 58 | > 1000 |  |
| COc1ccc2c(c1)OCCCCCCCCCN(C[C@@H](O)[C@H](Cc1ccccc1)NC(=O)O[C@H]1CO[C@H]3OCC[C@H]31)S2(=O)=O | 0.67 | 49 |  |
| C=CCCCCN(C[C@@H](O)[C@H](Cc1ccccc1)NC(=O)O[C@H]1CO[C@H]2OCC[C@H]21)S(=O)(=O)c1ccc(OC)cc1OCCCC=C | 11.5 | > 1000 |  |
| C=CCCCCOc1cc(OC)ccc1S(=O)(=O)N(C[C@@H](O)[C@H](Cc1ccccc1)NC(=O)O[C@H]1CO[C@H]2OCC[C@H]21)CC(C)(C)CC=C | 82 | > 1000 |  |
| COc1ccc2c(c1)OCCC/C=C\CC[C@H](C)CN(C[C@@H](O)[C@H](Cc1ccccc1)NC(=O)O[C@H]1CO[C@H]3OCC[C@H]31)S2(=O)=O | 0.31 | 9 |  |
| C=CCCCCOc1cc(OC)ccc1S(=O)(=O)N(CC=C)C[C@@H](O)[C@H](Cc1ccccc1)NC(=O)O[C@H]1CO[C@H]2OCC[C@H]21 | 1.7 | 270 |  |
| COc1ccc2c(c1)OCCC=CCCCCN(C[C@@H](O)[C@H](Cc1ccccc1)NC(=O)O[C@H]1CO[C@H]3OCC[C@H]31)S2(=O)=O |  |  | IC50 [15]: 20 nM; IC50 [16]: 20 nM; IC50 [17]: 20 nM |
| C=CCCCOc1cc(OC)ccc1S(=O)(=O)N(CC=C)C[C@@H](O)[C@H](Cc1ccccc1)NC(=O)O[C@H]1CO[C@H]2OCC[C@H]21 | 1.02 | 290 |  |
| COc1ccc2c(c1)OCCC/C=C/CC[C@@H](C)CN(C[C@@H](O)[C@H](Cc1ccccc1)NC(=O)O[C@H]1CO[C@H]3OCC[C@H]31)S2(=O)=O | 2.8 | 6.3 |  |
| COc1ccc(S(=O)(=O)N(CC(C)C)C[C@@H](O)[C@H](Cc2ccccc2)NC(=O)O[C@H]2CO[C@H]3OCC[C@H]32)cc1 |  | 1.2 |  |

— ChEMBL document CHEMBL1156053, “Design, synthesis, protein-ligand X-ray structure, and biological evaluation of a series of novel macrocyclic human immunodeficiency virus-1 protease inhibitors to combat drug resistance” (J Med Chem, 2009)
